Assay results taken from patent US20090306053A1, “Highly selective rho-kinase inhibitor” (priority 2005, published 2009).

Experiments:
Assay type in all cases: biochemical
Recombinant human Src = target: T1, Recombinant human Src (Homo sapiens, UniProt P12931); assay: Src kinase assay (Kinase-Glo ATP consumption); conditions: 0.5 μM ATP; read-out: Kinase Inhibiting Activity (IC50) Src
T1 construct: purchased Upstate
Procedure: Recombinant human Src (Upstate) was used to evaluate its activity to phosphorylate a substrate peptide (KVEKIGEGTYGVVYK, Upstate).
(§1) In a system of the total volume of 50 μL, the reaction of the above-mentioned enzyme (6 Units) was carried out at room temperature for 80 minutes in the presence of 40 mM of MOPS-NaOH (pH 7.5), 10 mM of magnesium chloride, 25 mM of manganese chloride, 300 μM of the above peptide, and 0.5 μM of ATP. After the kinase reaction, the luminescence intensity corresponding to the amount of ATP in the reaction system was measured using a luciferase reagent (Kinase-Glo Luminescent Kinase Assay kit, Promega) with a chemiluminescence measurement apparatus (MicroLumat, Berthold Technologies). The amount of ATP consumed by the phosphorylation reaction was calculated by comparison with the luminescence intensity in the system when the kinase reaction was not carried out.
(§2) With this system, the kinase reaction was carried out in the presence of a compound at various concentrations, and the IC50 value of the compound was determined based on the resulting compound concentration-response curve for ATP consumption.

Purified rat CaMKII = assay: CaMKII kinase assay (Kinase-Glo ATP consumption); conditions: relative ratio to ROCKII (=1.0), based on IC50 values
Procedure: Purified rat CaMKII (containing CaMKIIα and small amounts of β, γ, and δ isoforms, Upstate) was used to evaluate its activity to phosphorylate a substrate peptide (KKALRRQETVDAL, Upstate).
In a system of the total volume of 50 μL, the reaction of the above-mentioned enzyme (33 ng) was carried out at room temperature for 60 minutes in the presence of 50 mM of Tris-HCl (pH7.5), 10 mM of magnesium chloride, 2 mM of calcium chloride, 0.04 mg/mL of BSA, 16 μg/mL of purified bovine brain calmodulin (Sigma), 0.5 mM of DTT, 50 µM of the above peptide, and 1 μM of ATP. After the kinase reaction, the luminescence intensity corresponding to the amount of ATP in the reaction system was measured using a luciferase reagent (Kinase-Glo Luminescent Kinase Assay kit, Promega) with a chemiluminescence measurement apparatus (MicroLumat, Berthold Technologies). The amount of ATP consumed by the phosphorylation reaction was calculated by comparison with the luminescence intensity in the system when the kinase reaction was not carried out.
as §2
(§3) The ROCKII-inhibiting activity of a compound to be tested was defined as 1.0, and the inhibitory activities of the compound against kinases (PKA, PKG, CaMKII, and AuroraA) other than ROCKII were calculated as relative ratios to the ROCKII-inhibiting activity, based on the IC50 values calculated using the above-described evaluation system.

Purified chicken MLCK = target: T2, Purified chicken MLCK (Gallus gallus, UniProt P11799); assay: MLCK kinase assay (Kinase-Glo ATP consumption); conditions: 1 μM ATP; read-out: Kinase Inhibiting Activity (IC50) MLCK
T2 construct: from tissue
Procedure: Purified chicken MLCK (purified by the method of M. Anne Conti, et al.: Method in Enzymol. 196, 34-47) was used to evaluate its activity to phosphorylate a substrate peptide (AKRPQRATSNVFS, Sigma).
(§4) In a system of the total volume of 50 μL, the reaction of the above-mentioned enzyme (100 ng) was carried out at room temperature for 80 minutes in the presence of 20 mM of Tris-HCl (pH 7.5), 5 mM of magnesium chloride, 0.2 mM of calcium chloride, 0.02 mg/mL of BSA, 8 μg/mL of purified bovine brain calmodulin (Sigma), 50 μM of the above peptide, and 1 μM of ATP. After the kinase reaction, the luminescence intensity corresponding to the amount of ATP in the reaction system was measured using a luciferase reagent (Kinase-Glo Luminescent Kinase Assay kit, Promega) with a chemiluminescence measurement apparatus (MicroLumat, Berthold Technologies). The amount of ATP consumed by the phosphorylation reaction was calculated by comparison with the luminescence intensity in the system when the kinase reaction was not carried out.
as §2

[1] = target: T3, Recombinant human AuroraA (Homo sapiens, UniProt O14965); assay: AuroraA kinase assay (Kinase-Glo ATP consumption); set-up: key to Realative Inhibitory Activity AuroraA: ratio relative to ROCKII-inhibiting activity defined as 1.0 (from IC50s); conditions: for IC50: 1 μM ATP, read-out: Kinase Inhibiting Activity (IC50) AuroraA; for Realative Inhibitory Activity AuroraA: relative ratio to ROCKII (=1.0), based on IC50 values
T3 construct: purchased Upstate
T3 sequence (O14965 1-403): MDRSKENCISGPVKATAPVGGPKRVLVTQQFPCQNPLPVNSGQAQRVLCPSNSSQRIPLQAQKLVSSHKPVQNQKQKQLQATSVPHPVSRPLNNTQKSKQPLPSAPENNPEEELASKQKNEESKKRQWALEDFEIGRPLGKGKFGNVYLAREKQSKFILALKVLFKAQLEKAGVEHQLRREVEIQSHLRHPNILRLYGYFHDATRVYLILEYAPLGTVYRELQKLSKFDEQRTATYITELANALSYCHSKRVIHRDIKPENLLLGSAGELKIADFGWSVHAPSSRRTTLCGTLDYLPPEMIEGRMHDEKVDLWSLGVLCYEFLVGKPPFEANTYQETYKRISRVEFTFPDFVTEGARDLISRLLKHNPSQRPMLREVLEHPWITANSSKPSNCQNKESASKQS
Procedure: Recombinant human AuroraA (Upstate) was used to evaluate its activity to phosphorylate a substrate peptide (LRRASLG, Promega) was evaluated.
as §1, with “(40 ng)” for “(6 Units)”, “20” for “10”, “200” for “25 mM of manganese chloride, 300”, “1” for “0.5”
as §2, §3

[2] = target: T4, Purified bovine PKA (catalyst subunit) (Bos taurus, UniProt P00517); assay: PKA kinase assay (Kinase-Glo ATP consumption); conditions: for IC50: 1 μM ATP, read-out: Kinase Inhibiting Activity (IC50) PKA; for Realative Inhibitory Activity PKA: relative ratio to ROCKII (=1.0), based on IC50 values
T4 construct: Purified bovine PKA (catalyst subunit, Promega); purchased Promega
Procedure: Purified bovine PKA (catalyst subunit, Promega) was used to evaluate its activity to phosphorylate a substrate peptide (LRRASLG, Promega).
as §4, with “enzyme (43” for “enzyme (100”, “for 20” for “for 80”, “of 40” for “of 20”, “7.5), 20” for “7.5), 5”, “chloride, 1” for “chloride, 0.2 mM of calcium chloride, 0.02”, “BSA, 5” for “BSA, 8 μg/mL of purified bovine brain calmodulin (Sigma), 50”
as §2, §3

Row | Compound | IC50 (Recombinant human Src) [µM] | Realative Inhibitory Activity CaMKII (Purified rat CaMKII) | IC50 (Purified chicken MLCK) [µM] | IC50 [1] [µM] | Realative Inhibitory Activity AuroraA [1] | IC50 [2] [µM] | Realative Inhibitory Activity PKA [2]
1 | 2-(S)-1-(4-fluoroisoquinoline-5-sulfonyl)-4-glycyl-2-methylhomopiperazine dihydrochloride [Example 1] | > 100 | 763 | > 100 | 84.5 | 2817 | > 100 | >3000
2 | CNCC(=O)N1CCCN(S(=O)(=O)c2cccc3cncc(F)c23)[C@@H](C)C1.Cl.Cl [Example 2, 2-(S)-1-(4-fluoroisoquinoline-5-sulfonyl)-2-methyl-4-(N-methylglycyl)homopiperazine dihydrochloride] | > 100 | 890 | > 100 | 92.2 | >3000 | > 100 | >3000
